{
  "source": "patent US5019390A",
  "about": "“Anticancer agent--IMIC” (Research Corporation Technologies, Inc., priority 1987, dated 1991)",
  "key": {"P388 leukemia cells [1]": {"test_system": "P388 leukemia cells", "test": "IP injection study in vivo, P388 leukemia in DBA/2 mice", "details": "in vivo experiment 4, daily IP injections", "experimental": "Mice were 26-27 days old. […] Purina mouse chow was supplied ad libitum.\nIn experiments 3 & 4 (Tables 12a & 13a) the DBA/2 mouse was used.\nDNA was determined on total cells with no differentiation between viable and non-viable cells."}, "P388 leukemia cells [2]": {"test_system": "P388 leukemia cells", "test": "Viable P388 leukemia cells in cell culture (trypan blue)", "details": "48 hours, 37° C."}, "[3]": {"details": "in vitro experiment 1, 8 ml treatment"}, "[4]": {"details": "in vitro experiment 2, 2 ml treatment"}},
  "data": [
    {"smiles": "O=C(O)c1cc(=O)[nH]c(=O)[nH]1", "note": "[Orotic Acid, orotic acid]", "values": [
      {"measurement": "% Inhibition (numbers of viable P388 cells)", "setting": "P388 leukemia cells [1]", "value": 38, "unit": "%"},
      {"measurement": "DNA Content", "setting": "P388 leukemia cells [1]", "value": 428, "unit": "µg/mL"},
      {"measurement": "Numbers of Viable P388 Cells/ml", "setting": "P388 leukemia cells [1]", "value": "4.20 × 10^7 ± 630000 cells/ml"},
      {"measurement": "% Inhibition Based on Ringers Locke Control", "setting": "P388 leukemia cells [2]; [3]", "value": 11, "unit": "%"},
      {"measurement": "Numbers of Viable P388 Cells/ml", "setting": "P388 leukemia cells [2]; [3]", "value": ".66 × 10^6 ± 3500 Cells/ml"},
      {"measurement": "% Inhibition Based on Extraction Blank", "setting": "P388 leukemia cells [2]; [4]", "value": "Stimulation"},
      {"measurement": "% Inhibition Based on PBS Control", "setting": "P388 leukemia cells [2]; [4]", "value": "Stimulation"},
      {"measurement": "Numbers of Viable P388 Cells/ml", "setting": "P388 leukemia cells [2]; [4]", "value": "1.90 × 10^6 ± 7100 Cells/ml"}
    ]}
  ]
}
